The values below are quoted from earlier work in patent US9717795B2, “HPPH lyophilized powder injection for injection and preparation method thereof” (ZHEJIANG HISUN PHARMACEUTICAL CO., LTD, priority 2013, dated 2017).

HPPH: the solubility in water entry is reported as “poor solubility in water”.
